Here are results for two compounds from patent US20240058264A1, “PHARMACEUTICAL FORMULATIONS OF NINTEDANIB FOR INTRAOCULAR USE” (Boehringer Ingelheim International GmbH, priority 2022, published 2024).

One may read the solubility as how much of the substance goes into solution per volume. Read a high solubility as much dissolved substance.

Structures are written as SMILES. Converted amounts (≈) assume the structure as drawn.

This data set can be described thus: Water solubility. It counts as physicochemical.

For `COC(=O)c1ccc2c(c1)NC(=O)/C2=C(\Nc1ccc(N(C)C(=O)CN2CCN(C)CC2)cc1)c1ccccc1` [free base of nintedanib, 3-Z-[1-(4-(N-((4-methyl-piperazin-1-yl)-methylcarbonyl)-N-methyl-amino)-anilino)-1-phenyl-methylene]-6-methoxycarbonyl-2-indolinone], the “solubility in water” value is given as “very poor”.
Regarding `COC(=O)c1ccc2c(c1)NC(=O)/C2=C(\Nc1ccc(N(C)C(=O)CN2CCN(C)CC2)cc1)c1ccccc1` [nintedanib esylate], the solubility was 2800 µg/mL (≈ 5.19 mM).
